Earlier results in patent publication US11433058B2, “Non-pulsatile prolonged-release betahistine oral solid compositions” (INTAS PHARMACEUTICALS LTD., priority 2017, dated 2022).
Where a name gives a salt, the structure may show the parent alone.

Experiments:
[1] = per WO2014001267
[2] = oral; immediate release tablet or orodispersible tablet (Betaserc SmPC)

| Structure (SMILES) | water solubility [1] [mg/mL] | absolute bioavailability [2] |
| --- | --- | --- |
| CNCCc1ccccn1 [Betahistine dihydrochloride] | 49.3 | – |
| O=C(O)Cc1ccccn1 [Example 2-PAA, 2-pyridylacetic acid] | – | about 99% |
